The test system of one assay is OVCAR-3 cells. Put plainly: OVCAR-3 cell proliferation (Cell Titer-Glo, 10 days). In kind it is cell-based, human. On the procedure: The inhibitory effect on the KIF18A target by the compounds of the present disclosure was evaluated by testing the inhibitory effect on proliferation of OVCAR-3 cells by the compounds of the present disclosure.
The following method was used to determine the effect of the compounds of the present disclosure on the proliferation of human ovarian cancer cells Ovcar-3 (HTB-161, ATCC). Cells were cultured in RPMI-1640 complete medium containing 20% fetal bovine serum, 0.01 mg/mL bovine insulin, 100 U penicillin, and 100 μg/mL streptomycin. The Promega kit Cell Titer-Glo (Cat. No. G7572) was used in this method for test.
For specific steps, reference was made to the kit instructions, and the procedure was outlined below: Test compounds were dissolved in DMSO to prepare a 10 mM stock solution, which was diluted at the predetermined test concentrations, and the test compounds at different concentrations were added to a 384-well cell test plate using ECHO. In the plate pre-added with the test compounds, 400 OVCAR-3 cells in the logarithmic growth phase were seeded per well, ensuring the final concentration of the test compounds in the reaction system ranged between 0.12 nM and 10 μM. The co-culture was maintained in a cell culture incubator for 10 days. Before testing, the cell culture plate was equilibrated for 10 minutes at room temperature, 25 μL of Cell Titer-Glo was added to each well, and the mixture was shaken and mixed well and let stand for 5 minutes. The luminescence values for samples in various wells were read using a microplate reader in Luminescence mode.
The percentage of inhibition of cell proliferation by the test compound at each concentration was calculated by comparing with the values of the control group (0.1% DMSO). The IC50 values of the compounds were obtained by concentration-inhibition rate nonlinear regression analysis of the test compounds using GraphPad Prism 9.

The next assay has as its target KIF18A (Homo sapiens (Human), UniProt Q8NI77). Put plainly: KIF18A ATPase activity under tubulin stimulation (ADP-Glo assay). In kind it is biochemical. Conditions: KIF18A 30 nM, ATP 150 μM, pig microtubules. On the procedure: This experiment assesses the inhibitory effect of the compounds of the present disclosure on the KIF18A target according to the IC50 values by measuring the KIF18A ATPase activity under tubulin stimulation with the presence of the compounds.
• 1. Preparation of 30 mL of reaction buffer: • (1) 450 μL 1M Tris-HCl (pH=7.5)+300 μL 1M MgCl2+30 μL 10% Pluronic F-68 (ThermoFisher, 24040032-100 ml); • (2) adjusting pH to 7.5, and adding water to adjust the volume to 30 mL. • 2. Preparation of a 5 mg/mL pig microtubule (Microtubules; MT) (Cytoskeleton Inc, MT002) stock solution: • (1) 10 mL PM buffer=150 μL 1 M PIPES (pH 7.0)+20 μL 0.5 mM MgCl2+100 μL 2 mM Taxol (Cytoskeleton Inc, TXD01)+9730 μL water. • (2) MT ([…]): Adding 100 μL PM buffer to prepare a 5 mg/mL stock solution. Keeping the MT (Cytoskeleton Inc, MT002) at room temperature for 10-15 minutes, gently mixing and storing same at −80° C. • 3. Preparation of 2 mL of kinase buffer: 2 mL reaction buffer+1 μL 2 mM Taxol (Cytoskeleton Inc, TXD01)+12 μL 5 mg/mL MT (Cytoskeleton Inc, MT002). • 4. Preparation of 2×KIF18A (30 nM) (ChemPartner, CPB-P22-31645) working solution: 2.4 μL 10 μM KIF18A (ChemPartner, CPB-P22-31645)+800 μL 1× kinase buffer. • 5. Preparation of 2×ATP (150 μM) (Promega, G9101) working solution: 12 μL 10 mM ATP+800 μL 1× kinase buffer. • 6. 25 nL of compound was transferred to a 384-well plate using Echo650. • 7. 2.5 μL of 2×KIF18A from Step 4 (final concentration of 30 nM) was added to the 384-well plate and the plate was incubated at 25° C. for 15 minutes. • 8. 2.5 μL of 2×ATP from Step 5 (final concentration of 150 μM) was added to the 384-well plate and the plate was incubated at 25° C. for 15 minutes. • 9. 5 μL ADP-Glo™ Reagent (Promega, G9101) was added to the 384-well plate and the plate was incubated at 25° C. for 40 minutes. • 10. 10 μL of kinase detection reagent (Promega, G9101) was added to the 384-well plate and the plate was incubated at 25° C. for 40 minutes. • 11. Luminescence values were measured using the EnVision Xcite Multilabel Reader (PerkinElmer, 2105-0020).
(ADP-Glo first removes unused ATP, then detects ADP through luciferase.)

We go through 18 compounds from US20260070887A1 (Shenzhen Zhongge Biological Technology Co., Ltd., priority 2022, published 2026).

Where two headings read alike, the source gives them in different places. Where only a bound is given, the exact number is not on record here.

As a reminder, the IC50 is the concentration that gives 50% inhibition. Read a low IC50 as greater potency in that assay.

KIF18A, sequence (Q8NI77 whole entry): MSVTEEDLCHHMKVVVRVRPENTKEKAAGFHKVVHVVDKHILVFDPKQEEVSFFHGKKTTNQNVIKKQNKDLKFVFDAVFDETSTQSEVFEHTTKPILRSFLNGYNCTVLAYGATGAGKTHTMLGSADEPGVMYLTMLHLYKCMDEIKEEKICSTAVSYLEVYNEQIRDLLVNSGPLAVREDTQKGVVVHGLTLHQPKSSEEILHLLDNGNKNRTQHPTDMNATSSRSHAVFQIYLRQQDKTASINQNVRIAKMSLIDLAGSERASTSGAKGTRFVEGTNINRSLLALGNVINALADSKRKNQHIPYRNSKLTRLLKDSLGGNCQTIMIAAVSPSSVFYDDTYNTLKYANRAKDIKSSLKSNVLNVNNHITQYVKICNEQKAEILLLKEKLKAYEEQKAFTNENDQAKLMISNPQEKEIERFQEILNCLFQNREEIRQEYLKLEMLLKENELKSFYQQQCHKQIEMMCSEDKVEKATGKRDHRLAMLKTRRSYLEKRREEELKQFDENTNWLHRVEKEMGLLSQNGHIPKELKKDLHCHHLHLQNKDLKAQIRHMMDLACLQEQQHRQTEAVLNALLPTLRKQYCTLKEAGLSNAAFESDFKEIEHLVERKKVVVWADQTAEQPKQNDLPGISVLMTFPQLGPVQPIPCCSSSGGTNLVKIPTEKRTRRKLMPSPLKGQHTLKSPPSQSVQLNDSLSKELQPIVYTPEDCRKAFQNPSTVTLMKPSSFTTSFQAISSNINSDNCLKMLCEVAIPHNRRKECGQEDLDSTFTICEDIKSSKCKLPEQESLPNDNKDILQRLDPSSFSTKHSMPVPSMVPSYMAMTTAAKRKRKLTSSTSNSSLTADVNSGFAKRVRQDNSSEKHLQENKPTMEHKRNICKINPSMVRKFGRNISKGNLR
KIF18A, sequence (P02550 whole entry partner): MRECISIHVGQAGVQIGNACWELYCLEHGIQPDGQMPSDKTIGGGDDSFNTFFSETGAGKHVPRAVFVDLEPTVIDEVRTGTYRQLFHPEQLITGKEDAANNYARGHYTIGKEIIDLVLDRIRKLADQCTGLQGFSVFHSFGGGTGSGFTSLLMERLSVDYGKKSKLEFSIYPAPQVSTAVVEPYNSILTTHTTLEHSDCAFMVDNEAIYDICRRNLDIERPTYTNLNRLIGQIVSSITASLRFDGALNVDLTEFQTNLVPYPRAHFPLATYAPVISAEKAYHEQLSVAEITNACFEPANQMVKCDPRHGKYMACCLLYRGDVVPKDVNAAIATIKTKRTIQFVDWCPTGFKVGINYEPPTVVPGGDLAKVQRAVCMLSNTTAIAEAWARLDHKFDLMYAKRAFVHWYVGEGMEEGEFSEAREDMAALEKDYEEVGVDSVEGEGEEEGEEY
KIF18A, sequence (P02554 whole entry partner): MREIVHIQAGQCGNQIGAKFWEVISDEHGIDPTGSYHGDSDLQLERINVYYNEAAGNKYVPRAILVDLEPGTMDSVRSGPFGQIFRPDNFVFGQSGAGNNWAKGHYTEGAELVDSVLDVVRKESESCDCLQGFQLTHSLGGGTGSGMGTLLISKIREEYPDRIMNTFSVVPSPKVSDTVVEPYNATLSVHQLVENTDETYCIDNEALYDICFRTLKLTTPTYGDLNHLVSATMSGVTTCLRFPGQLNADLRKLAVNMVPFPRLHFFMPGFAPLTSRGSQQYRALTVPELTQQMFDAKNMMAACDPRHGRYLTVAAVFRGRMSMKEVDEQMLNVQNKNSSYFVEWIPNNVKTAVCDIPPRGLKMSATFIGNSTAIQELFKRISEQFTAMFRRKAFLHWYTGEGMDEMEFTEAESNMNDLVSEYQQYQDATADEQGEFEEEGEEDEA

On to `COC1c2cc3c(NC(=O)c4ccc(NS(=O)(=O)CCO)cc4N4CCC5(CC4)CC5)cccc3n2CCC1(F)F` (single isomer, unassigned) [Example 340-P1], for which the IC50 in the assay with OVCAR-3 cells and on KIF18A was 0.05 to 0.5 µM throughout.

Consider `CCS(=O)(=O)Nc1ccc(C(=O)Nc2cccc3c2cc2n3CCCC2O)c(N2CCC3(CC2)CC3)c1` (single isomer, unassigned) [Example 373-P1, 4-(ethylsulfonamido)-N-(9-hydroxy-6,7,8,9-tetrahydropyridino[1,2-a]indol-1-yl)-2-(6-azaspiro[2.5]oct-6-yl)benzamide], for which the IC50 with OVCAR-3 cells (Homo sapiens, OVCAR-3, 240 h) was 0.05 to 0.5 µM; at KIF18A, 0.05 to 0.5 µM.

In the case of `CCS(=O)(=O)Nc1ccc(C(=O)Nc2cccc3c2cc2n3CCCC2O)c(N2CCC3(CC2)CC3)c1` (single isomer, unassigned) [Example 373-P2, 4-(ethylsulfonamido)-N-(9-hydroxy-6,7,8,9-tetrahydropyridino[1,2-a]indol-1-yl)-2-(6-azaspiro[2.5]oct-6-yl)benzamide], the IC50 in the assay on OVCAR-3 cells and against KIF18A was 0.05 to 0.5 µM each time.

With `CC1OCCn2c1cc1c(NC(=O)c3ccc(NS(=O)(=O)CCO)cc3N3CCC4(CC3)CC4)cccc12` (stereo not drawn) [Compound 311-P1, 4-((2-hydroxyethyl)sulfonamido)-N-(1-methyl-3,4-dihydro-1H-[1,4]oxazinyl[4,3-a]indol-9-yl)-2-(6-azaspiro[2.5]oct-6-yl)benzamide], the values for the IC50 in the assay on OVCAR-3 cells and against KIF18A were 0.05 to 0.5 µM and at most 0.05 µM, respectively.

For `CC1OCCn2c1cc1c(NC(=O)c3ccc(NS(=O)(=O)CCO)cc3N3CCC4(CC3)CC4)cccc12` (stereo not drawn) [Compound 311-P2, 4-((2-hydroxyethyl)sulfonamido)-N-(1-methyl-3,4-dihydro-1H-[1,4]oxazinyl[4,3-a]indol-9-yl)-2-(6-azaspiro[2.5]oct-6-yl)benzamide], the IC50 in the assay with OVCAR-3 cells and on KIF18A was at most 0.05 µM in each case.

In the case of `CCS(=O)(=O)Nc1ccc(C(=O)Nc2cccc3c2cc2n3CCC(F)(F)C2O)c(N2CCC3(CC2)CC3)c1` (stereo not drawn) [Compound 382, N-(8,8-difluoro-9-hydroxy-6,7,8,9-tetrahydropyridino[1,2-a]indol-1-yl)-4-ethyl sulfonamido-2-(6-azaspiro[2.5]octan-6-yl)benzamide], the IC50 with OVCAR-3 cells and on KIF18A was at most 0.05 µM throughout.

Consider `O=C(Nc1cccc2c1cc1n2CCC(F)(F)C1O)c1ccc(NS(=O)(=O)CCO)cc1N1CCC(=C(F)F)CC1` (stereo not drawn) [Compound 383, N-(8,8-difluoro-9-hydroxy-6,7,8,9-tetrahydropyridino[1,2-a]indol-1-yl)-2-(4-(difluoromethylene)piperidin-1-yl)-4-((2-hydroxyethyl)sulfonamido)benzamide], for which the IC50 was at most 0.05 µM with OVCAR-3 cells (Homo sapiens, OVCAR-3, 240 h) and at most 0.05 µM against KIF18A.

For the compound `O=C(Nc1cccc2c1cc1n2CCC(F)(F)C1O)c1ccc(NS(=O)(=O)CCO)cc1N1CCC2(CC1)CC2` (stereo not drawn) [Compound 384, N-(8,8-difluoro-9-hydroxy-6,7,8,9-tetrahydropyridino[1,2-a]indol-1-yl)-4-((2-hydroxyethyl)sulfonamido)-2-(6-azaspiro[2.5]oct-6-yl)benzamide], the IC50 in the assay on OVCAR-3 cells (Homo sapiens, OVCAR-3, 240 h) was at most 0.05 µM; on KIF18A, 0.05 to 0.5 µM.

In the case of `O=C(Nc1ccc2c(c1)N1CCC(F)(F)CC1CO2)c1ccc(NS(=O)(=O)CCO)cc1N1CCC(=C(F)F)CC1` (stereo not drawn) [Compound 399], the IC50 was 0.5 to 5 µM in the assay with OVCAR-3 cells (Homo sapiens, OVCAR-3, 240 h) and 0.05 to 0.5 µM at KIF18A.

Regarding `O=C(Nc1cccc2c1OCC1CC(F)(F)CCN21)c1ccc(NS(=O)(=O)CCO)cc1N1CCC2(CC1)CC2` (stereo not drawn) [Compound 400, N-(8,8-difluoro-6,6a,7,8,9,10-hexahydrobenzo[b]pyrido[1,2-d][1,4]oxazin-4-yl)-4-((2-hydroxyethyl)sulfonamido)-2-(6-azaspiro[2.5]oct-6-yl)benzamide], the IC50 in the assay on OVCAR-3 cells (Homo sapiens, OVCAR-3, 240 h) was 0.05 to 0.5 µM; on KIF18A, at most 0.05 µM.

For `O=C(Nc1ccnc2c1cc1n2CCOC1)c1ccc(NS(=O)(=O)CCO)cc1N1CCC(=C(F)F)CC1` [Compound 401, 2-(4-(difluoromethylene)piperidin-1-yl)-N-(8,9-dihydro-6H-pyrido[3′,2′:4,5]pyrrolo[2,1-c][1,4]oxazin-4-yl)-4-((2-hydroxyethyl)sulfonamido)benzamide], the IC50 with OVCAR-3 cells (Homo sapiens, OVCAR-3, 240 h) was 0.05 to 0.5 µM; at KIF18A, at most 0.05 µM.

For the compound `O=C(Nc1cccc2c1CC1COCCN21)c1ccc(NS(=O)(=O)CCO)cc1N1CCC2(CC1)CC2` (stereo not drawn) [Compound 411, 4-((2-hydroxyethyl)sulfonamido)-2-(6-azaspiro[2.5]oct-6-yl)-N-(3,4,10,10-tetrahydro-1H-[1,4]oxazino[4,3-a]indol-9-yl)benzamide], the IC50 in the assay on OVCAR-3 cells and on KIF18A was 0.05 to 0.5 µM throughout.

As for `COC1c2cc3c(NC(=O)c4ccc(NS(=O)(=O)CCO)cc4N4CCC5(CC4)CC5)ccc(C#N)c3n2CCC1(F)F` (stereo not drawn) [Compound 428, N-(4-cyano-8,8-difluoro-9-methoxy-6,7,8,9-tetrahydropyridino[1,2-a]indol-1-yl)-4-((2-hydroxyethyl)sulfonamido)-2-(6-azaspiro[2.5]oct-6-yl)benzamide], the IC50 in the assay on OVCAR-3 cells (Homo sapiens, OVCAR-3, 240 h) is 0.05 to 0.5 µM; against KIF18A it was 0.05 to 0.5 µM.

Turning to `O=C(Nc1cccc2c1CCN2CC1CC1)c1ccc(NS(=O)(=O)CCO)cc1N1CCC2(CC1)CC2` [Example 5, N-(1-(cyclopropylmethyl)indoline-4-(2-hydroxyethyl)sulfonamido)-2-(6-azaspiro[2.5]octan-6-yl)benzamide], the IC50 is 0.05 to 0.5 µM with OVCAR-3 cells and at most 0.05 µM at KIF18A.

As for `O=C(Nc1cccc2c1cc1n2CCC(F)(F)C1)c1ccc(NS(=O)(=O)CCO)cc1N1CCC2(CC1)CC2` [Example 128, 2-(6-azaspiro[2.5]oct-6-yl)-N-(8,8-difluoro-6,7,8,9-tetrahydropyridino[1,2-a]indol-1-yl)-4-{[(2-hydroxyethyl)sulfonamide]}benzamide], the IC50 with OVCAR-3 cells and on KIF18A was at most 0.05 µM in each case.

On to `O=C(Nc1cccc2c1CC1CCCN21)c1ccc(NS(=O)(=O)CCO)cc1N1CCC2(CC1)CC2` (stereo not drawn) [Example 130, 4-((2-hydroxyethyl)sulfonamide)-2-(6-azaspiro[2.5]octan-6-yl)-N-(2,3,9,9a-tetrahydro-1H-pyrrolo[1,2a]indol-8-yl)benzamide], for which the IC50 with OVCAR-3 cells is 0.05 to 0.5 µM; against KIF18A, at most 0.05 µM.

In the case of `CC(C)(O)Cn1ccc2c(NC(=O)c3ccc(NS(=O)(=O)CCO)cc3N3CCC4(CC3)CC4)cccc21` [Example 279, N-(1-(2-hydroxy-2-methylpropyl)-1H-indol-4-yl)-4-((2-hydroxyethyl)sulfonamido)-2-(6-azaspiro[2.5]oct-6-yl)benzamide], the IC50 with OVCAR-3 cells (Homo sapiens, OVCAR-3, 240 h) was 0.5 to 5 µM; against KIF18A, 0.05 to 0.5 µM.

With `O=C(Nc1cccc2c1ccn2CC1(F)CC1)c1ccc(NS(=O)(=O)CCO)cc1N1CCC2(CC1)CC2` [Example 283, N-(1-((1-fluorocyclopropyl)methyl)-1H-indol-4-yl)-4-((2-hydroxyethyl)sulfonamido)-2-(6-azaspiro[2.5]oct-6-yl)benzamide], the IC50 in the assay with OVCAR-3 cells (Homo sapiens, OVCAR-3, 240 h) lay in the range of 0.05 to 0.5 µM; on KIF18A, 0.05 to 0.5 µM.
